Where two headings read alike, the source gives them in different places.
Assays:
[1] = Pharmacokinetic determination in rats (IV and PO, plasma, LCMS/MS); type: in vivo, SD rats; conditions: male SD rats; for F: PO 30 mg/kg vs IV 1 mg/kg; for AUC(0-inf): read-out: AUCo-∞; for half-life: read-out: T1/2 (converted)
Protocol: SD rats were used as test animals to study the pharmacokinetic behavior of the example compounds in rats (plasma) after oral administration.
The example compounds of the present invention, made in house.
3 SD rats per group, male. Shanghai Jiesijie Experimental Animal Co., Ltd., animal production license number (SCXK (Shanghai) 2013-0006 N0.311620400001794).
Formulation of a drug for oral administration: 10% Captisol in 50 mM citrate buffer pH 5.0.
(§1) Formulation of 50 mM citric acid: 4.8 g of citric acid was weighed into a 1000 ml glass bottle, ultrapure water was added to 300 ml, and the mixture was magnetically stirred until completely dissolved, additional ultrapure water was then added to 500 ml to formulate 50 mM citric acid.
(§2) Formulation of a solution containing 50 mM citric acid (10% Captisol, PH = 5): 50 g of Captisol powder was weighed and added to a 1000 ml glass bottle, 300 ml of 50 mM citric acid was added, and the mixture was magnetically stirred until completely dissolved, then additional citric acid was added to 500 ml, and the PH was adjusted to 5 using 10 M NaOH.
The example compounds were weighed and dissolved in the solution and the mixture was shaken well and subjected to ultrasound treatment for 15 min to obtain a colorless clear solution with a concentration of 3 mg/mL.
(§3) Formulation of a drug for intravenous administration: 5%DMSO+10%Solutol HS15+85%PBS.
(§4) The example compounds were weighed, and 5% DMSO was added according to the total administration volume; the mixture was vortexed and sonicated for 2 min to ensure complete dissolution; then, 10% Solutol HS15 was added, and the mixture was vortexed and sonicated for 2 min to achieve complete dissolution; finally, 85% PBS was added, and the mixture was vortexed and sonicated for 5 min; the obtained mixture was filtered through a 0.22 um membrane to obtain a colorless, transparent, and clear solution with a concentration of 0.2 mg/mL.
3 SD rats per group, male; After overnight fasting, the animals were administered orally (PO) at a dose of 30 mg/kg with an administration volume of 10 mL/kg.
3 SD rats per group, male; After overnight fasting, the animals were administered intravenously (IV) at a dose of 1 mg/kg with an administration volume of 5 mL/kg.
0.2 mL of blood was collected from the jugular vein before administration and at 0.25 h, 0.5 h, 1.0 h, 2.0 h, 4.0 h, 6.0 h, 8.0 h, and 24.0 h after administration and placed in an EDTA-2K test tube, and the test tube was centrifuged at 6000 rpm for 6 min at 4°C to separate the plasma, which was stored at -20°C. the animals were fed 4 h after administration.
The final determination results obtained by applying the LCMS/MS method are shown in the table below: Table 8: Pharmacokinetic parameters of the compounds administered intravenously in rats

GP2D = test: Inhibition of proliferation of KRAS G12D mutant tumor cell line GP2D (CellTiter-Glo); conditions: read-out: GP2D IC50
Protocol: Experimental method: When SNU-1, HPAF-II, Panc0403, AsPC-1 or GP2D cells were cultured to the appropriate confluence, and the SNU-1, HPAF-II, Panc0403, AsPC-1 or GP2D cells were collected. The cells were adjusted to the appropriate cell density using complete culture medium, the cell suspension was plated onto a 96-well plate at 90 µL per well, and the plate was placed in the incubator at 37°C and 5% CO2 for adherent culture overnight. Solutions of the compound with different concentrations were formulated using DMSO and culture medium. A vehicle control was set up. […] Then, CellTiter-Glo solution was added, and the obtained mixture was shaken and mixed evenly, incubated in the dark for 10 min, and read with a BioTek Synergy H1 microplate reader. […] Experimental data processing method: The luminescence signal value was used to calculate the inhibition rate. Graphpad Prism software was used to fit the concentration and inhibition rate to a nonlinear regression curve, so as to obtain the IC50 value.

[2] = Pharmacokinetic determination in mice (IV and PO, plasma, LCMS/MS); type: in vivo, Balb/c mice; conditions: for half-life: read-out: T1/2 (converted)
From the text: • 1. Study objective: Balb/c mice were used as test animals to study the pharmacokinetic behavior of the compounds in mice (plasma) after oral administration. • 2. Test scheme • 2.1 Test drugs: The example compounds of the present invention, made in house; • 2.2 Test animals: Balb/c mice, male, purchased from Shanghai Jiesijie Experimental Animal Co., Ltd., animal production license number (SCXK (Shanghai) 2013-0006 N0.311620400001794). • 2.3 Drug formulation: Formulation of a drug for oral administration: 10% Captisol in 50 mM citrate buffer pH 5.0.
as §1, §2
The example compounds were weighed and added to a 4 mL glass bottle separately, 2.4 mL of the solution was added and the mixture was subjected to ultrasound treatment for 10 min to obtain a colorless clear solution with a concentration of 3 mg/mL.
as §3, §4
3 Balb/c mice, male; After overnight fasting, the animals were administered orally (PO) at a dose of 30 mg/kg with an administration volume of 10 mL/kg.
3 Balb/C mice, male; After overnight fasting, the animals were administered intravenously (IV) at a dose of 1 mg/kg with an administration volume of 5 mL/kg.
0.04 mL of blood was collected from the orbit before administration and at 0.25 h, 0.5 h, 1 h, 2 h, 4 h, 6 h, 8 h, and 24 h after administration and placed in an EDTA-2K test tube, and the test tube was centrifuged at 6000 rpm for 6 min at 4°C to separate the plasma, which was stored at -20°C; the animals were fed 4 h after administration.
The final determination results obtained by applying the LCMS/MS method are shown in the table below: Table 6: Pharmacokinetic parameters of the compounds administered intravenously in mice

[3] = Plasma stability test, human plasma; type: in vitro ADME; conditions: human, plasma;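 further: test compound incubated in human plasma, quantified by LC-MS/MS (positive-ion ESI, MRM) against an internal standard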
Protocol: (§5) Liquid chromatography-mass spectrometer, centrifuge, vortexer, pipette, continuous dispenser, 96-well plate, 50% methanol aqueous solution, acetonitrile solution containing internal standard, blank matrix (plasma of rat, dog, or human), Propantheline (propantheline bromide), Mevinolin (lovastatin), and test compound.
(§6) After whole blood was collected from animals or humans, it was placed in a test tube containing an anticoagulant and centrifuged at 3500 rpm for 10 min to collect the upper pale yellow plasma.
(§7) The compound was weighed and the stock solution was formulated with DMSO and the working solution was formulated with 100 mM phosphate buffer.
(§8) • Instrument: API4000 liquid chromatography-mass spectrometer, AB Company, USA; • the ion source was electrospray ionization source (ESI); • drying gas (N2) temperature was 500°C; • electrospray voltage was 5500V; • the detection method was positive ion detection; • the scanning method was selected reaction monitoring (MRM); • the scanning time was 0.1s.

[4] = Plasma stability test, dog plasma; type: in vitro ADME; conditions: dog, plasma;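 further: parent compound left in dog plasma quantified by LC-MS with positive electrospray ionization, selected reaction monitoring and an internal standard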
Protocol: as §5, §6, §7, §8

[5] = Plasma stability test, mouse plasma; type: in vitro ADME; conditions: mouse, plasma;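 further: test compound quantified by LC-MS using positive-mode electrospray ionization and MRM scanning, with an internal standard added in acetonitrile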
Protocol: as §5, §6, §7, §8

[6] = rat, in vivo, IV, 1 mg/kg, overnight fasting, plasma
[7] = rat, in vivo, PO, 30 mg/kg, overnight fasting, plasma
[8] = rat, in vivo, PO, 30 mg/kg, overnight fasting, plasma, read-out: Cmax
[9] = rat, in vivo, PO, 30 mg/kg, overnight fasting, plasma, read-out: Tmax
[10] = IV, 1 mg/kg, overnight fasting, plasma
[11] = PO, 30 mg/kg, overnight fasting, plasma

## C#Cc1c(F)ccc2cc(O)cc(-c3nc4c5c(nc(OCC6(CN7CCC(=C(F)F)CC7)CC6)nc5c3F)N3C[C@H]5CC[C@H](N5)[C@H]3[C@H](CC)O4)c12 [Example 124, 4-((5S,5aS,6S,9R)-12-((1-((4-(difluoromethylene)piperidin-1-yl)methyl)cyclopropyl)methoxy)-5-ethyl-1-fluoro-5a,6,7,8,9,10-hexahydro-5H-4-oxa-3,10a,11,13,14-pentaaza-6,9-methylnaphtho[1,8-ab]hept-2-yl)-5-ethynyl-6-fluoronaphthalen-2-ol]
[1]
  F: 18%
[1]; [6]
  AUC(0-inf): 1110 ng·h/mL
  half-life: 9 h
[1]; rat, in vivo, IV, 1 mg/kg, overnight fasting, plasma, read-out: C0
  C0: 524 ng/mL
[1]; rat, in vivo, IV, 1 mg/kg, overnight fasting, plasma, read-out: CL
  clearance: 15 mL/min/kg
[1]; [7]
  AUC(0-inf): 6170 ng·h/mL
  half-life: 6.8 h
[1]; [8]
  Cmax: 471 ng/mL
[1]; [9]
  Tmax: 6 h
GP2D; Homo sapiens, GP2d, 72 h
  IC50: 980 pM
[2]; PO 30 mg/kg vs IV 1 mg/kg, male Balb/c mice
  F: 23%
[2]; mouse, in vivo, Balb/c mice, intravenously (IV), 1 mg/kg, plasma, read-out: AUCo-∞
  AUC(0-inf): 374 ng·h/mL
[2]; mouse, in vivo, Balb/c mice, intravenously (IV), 1 mg/kg, plasma, read-out: C0
  C0: 412 ng/mL
[2]; mouse, in vivo, Balb/c mice, intravenously (IV), 1 mg/kg, plasma, read-out: CL
  clearance: 44.6 mL/min/kg
[2]; mouse, in vivo, Balb/c mice, intravenously (IV), 1 mg/kg, plasma
  half-life: 11.5 h
[2]; mouse, in vivo, PO, 30 mg/kg, male Balb/c mice, overnight fasting, plasma, read-out: AUC0-∞
  AUC(0-inf): 2610 ng·h/mL
[2]; mouse, in vivo, PO, 30 mg/kg, male Balb/c mice, overnight fasting, plasma, read-out: Cmax
  Cmax: 391 ng/mL
[2]; mouse, in vivo, PO, 30 mg/kg, male Balb/c mice, overnight fasting, plasma
  half-life: 6.6 h
[2]; mouse, in vivo, PO, 30 mg/kg, male Balb/c mice, overnight fasting, plasma, read-out: Tmax
  Tmax: 1 h

## C#Cc1c(F)ccc2cc(O)cc(-c3nc4c5c(nc(OCC6(CN7CC8CC(=C(F)F)CC8C7)CC6)nc5c3F)N3C[C@H]5CC[C@H](N5)[C@H]3[C@H](C)O4)c12 (stereo partly drawn) [Example 133]
[1]; [7]
  AUC(0-inf): 6510 ng·h/mL
  half-life: 7 h
[1]; [8]
  Cmax: 588 ng/mL
[1]; [9]
  Tmax: 4 h
GP2D; Homo sapiens, GP2d, 72 h
  IC50: 530 pM

## C#Cc1c(F)ccc2cc(O)cc(-c3nc4c5c(nc(OCC6(CN7C8CCC7CC(=C(F)F)C8)CC6)nc5c3F)N3C[C@H]5CC[C@H](N5)[C@H]3[C@H](C)O4)c12 [Example 134]
GP2D; Homo sapiens, GP2d, 72 h
  IC50: 1000 pM

## C#Cc1c(F)ccc2cc(O)cc(-c3nc4c5c(nc(OCC6(CN7CCCC(=C(F)F)CC7)CC6)nc5c3F)N3C[C@H]5CC[C@H](N5)[C@H]3[C@H](CC)O4)c12 [Example 140]
[1]; [7]
  AUC(0-inf): 2280 ng·h/mL
  half-life: 11 h
[1]; [8]
  Cmax: 118 ng/mL
[1]; [9]
  Tmax: 2 h
GP2D; Homo sapiens, GP2d, 72 h
  IC50: 790 pM

## C#Cc1c(F)ccc2cc(O)cc(-c3nc4c5c(nc(OCC6(CN7CC8CC(=C(F)F)CC8C7)CC6)nc5c3F)N3C[C@H]5CC[C@H](N5)[C@H]3[C@H](CC)O4)c12 (stereo partly drawn) [Example 141]
[1]; [7]
  AUC(0-inf): 17300 ng·h/mL
  half-life: 18.9 h
[1]; [8]
  Cmax: 869 ng/mL
[1]; [9]
  Tmax: 2 h
GP2D; Homo sapiens, GP2d, 72 h
  IC50: 940 pM

## [2H]C([2H])([2H])[C@@H]1Oc2nc(-c3cc(O)cc4ccc(F)c(C#C)c34)c(F)c3nc(OC([2H])([2H])C4(C([2H])([2H])N5CCC(=CF)CC5)CC4)nc(c23)N2C[C@H]3CC[C@H](N3)[C@@H]12 [Example 298]
GP2D; Homo sapiens, GP2d, 72 h
  IC50: 280 pM

## CC[C@@H]1Oc2nc(-c3cc(N)cc(Cl)c3C(F)(F)F)c(F)c3nc(OCC4(CN5CCC(=CF)CC5)CC4)nc(c23)N2C[C@@H]3CC[C@@H](N3)[C@@H]12 [Example 322, 3-chloro-5-((5S,5aS,6R,9S)-5-ethyl-1-fluoro-12-((1-((4-(fluoromethylene)piperidin-1-yl)methyl)cyclopropyl)methoxy)-5a,6,7,8,9,10-hexahydro-5H-4-oxa-3,10a,11,13,14-pentaaza-6,9-methylnaphtho[1,8-ab]hept-2-yl)-4-(trifluoromethyl)aniline]
[1]; [10]
  AUCo-∞: 219 ng·h/mL
  C0: 326 ng/mL
  CL: 76.2 mL/min/kg
  T1/2: 11.6 h
[1]
  F: 10%
[1]; [11]
  AUCo-∞: 694 ng·h/mL
  Cmax: 40 ng/mL
  T1/2: 10.4 h
  Tmax: 6.0 h
GP2D; proliferation, about 72 h, CellTiter-Glo
  IC50: 610 pM

## C#Cc1c(F)ccc2cc(O)cc(-c3nc4c5c(nc(OCC6(CN7CCC(=NOC)C8(CC8)C7)CC6)nc5c3F)N3C[C@H]5CC[C@H](N5)[C@H]3[C@H](C)O4)c12 [Example 342, 5-((1-((((5S,5aS,6S,9R)-2-(8-ethynyl-7-fluoro-3-hydroxynaphthalen-1-yl)-1-fluoro-5-methyl-5a,6,7,8,9,10-hexahydro-5H-4-oxa-3,10a,11,13,14-pentaaza-6,9-methylnaphtho[1,8-ab]heptene-12-yl)oxy)methyl)cyclopropyl)methyl)-5-azaspiro[2.5]octan-8-one O-methyloxime]
GP2D; Homo sapiens, GP2d, 72 h
  IC50: 410 pM

## C#Cc1c(F)ccc2cc(O)cc(-c3nc4c5c(nc(OCC6(CN7CC8CCC7CC8=NOC)CC6)nc5c3F)N3C[C@H]5CC[C@H](N5)[C@H]3[C@H](C)O4)c12 [Example 345]
GP2D; Homo sapiens, GP2d, 72 h
  IC50: 180 pM

## CC(C)[N+](C)(CCOC(=O)C1c2ccccc2Oc2ccccc21)C(C)C [Propantheline bromide, propantheline bromide, reference compound]
[3]
  half-life: 0.27 h
[3]; 0 h
  Remaining rate (%) 0 min: 100.00%
[3]; 0.25 h
  Remaining rate (%) 15 min: 26.78%
[3]; 0.5 h
  Remaining rate (%) 30 min: 5.05%
[3]; 1 h
  Remaining rate (%) 60 min: 0.25%
[3]; 2 h
  Remaining rate (%) 120 min: 0.05%
[4]
  half-life: 1.34 h
[4]; 0 h
  Remaining rate (%) 0 min: 100.00%
[4]; 0.25 h
  Remaining rate (%) 15 min: 95.25%
[4]; 0.5 h
  Remaining rate (%) 30 min: 95.45%
[4]; 1 h
  Remaining rate (%) 60 min: 75.66%
[4]; 2 h
  Remaining rate (%) 120 min: 36.25%
[5]
  half-life: 0.462 h
[5]; 0 h
  Remaining rate (%) 0 min: 100.00%
[5]; 0.25 h
  Remaining rate (%) 15 min: 79.79%
[5]; 0.5 h
  Remaining rate (%) 30 min: 48.66%
[5]; 1 h
  Remaining rate (%) 60 min: 23.39%
[5]; 2 h
  Remaining rate (%) 120 min: 6.66%
